The assay has as its system Swiss mice, Sarcoma 180 sc, mean tumor weight T/C. Briefly: NCI In Vivo Anticancer Drug Screen. Data for tumor model Sarcoma 180 (subcutaneous) in Swiss mice. To be noted: endpoint: mean tumor weight, higher = larger tumour. The essentials: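 Tumor-bearing mice, transplantable tumor; readout survival or tumor size; result = T/C, treated vs vehicle control.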
Setting [1] is: dose: 125.0 mg/kg/injection, schedule: Q01DX007 (ip), vehicle: carboxymethylcellulose (CMC).
Setting [2] is: dose: 125.0 mg/kg/injection, schedule: Q01DX007 (ip), vehicle: saline.
Where [3] appears, read: dose: 220.0 mg/kg/injection, schedule: Q01DX007 (ip), vehicle: carboxymethylcellulose (CMC).

Each structure is given as a SMILES string. Values joined by “and” are separate entries in the source; they are usually repeats but may differ in a detail not shown here. Equal values may be shown once.

As to `O=C(O)c1cccc2c3c(cc([N+](=O)[O-])c12)CCCC3`, where the note is “dose: 1.5 mg/kg/injection, schedule: Q01DX007 (ip), vehicle: carboxymethylcellulose (CMC)”, the T/C is 157 % of control.
Consider `CCCCCCCCCCCCOP(N)(=O)OCCCCCCCCCCCC`, for which the T/C was 73 % of control (dose: 20.0 mg/kg/injection, schedule: Q01DX007 (ip), vehicle: carboxymethylcellulose (CMC)); 86 % of control (dose: 55.0 mg/kg/injection, schedule: Q01DX007 (ip), vehicle: carboxymethylcellulose (CMC)); 49 % of control (dose: 55.5 mg/kg/injection, schedule: Q01DX007 (ip), vehicle: carboxymethylcellulose (CMC)); 103 % of control (dose: 80.0 mg/kg/injection, schedule: Q01DX007 (ip), vehicle: carboxymethylcellulose (CMC)); 71 % of control (dose: 83.0 mg/kg/injection, schedule: Q01DX007 (ip), vehicle: carboxymethylcellulose (CMC)); 54 % of control (dose: 83.3 mg/kg/injection, schedule: Q01DX007 (ip), vehicle: carboxymethylcellulose (CMC)). The T/C was 54 % of control (dose: 120.0 mg/kg/injection, schedule: Q01DX007 (ip), vehicle: carboxymethylcellulose (CMC)); 42 % of control under setting [1]; 22 % of control (dose: 187.5 mg/kg/injection, schedule: Q01DX007 (ip), vehicle: carboxymethylcellulose (CMC)).
As for `CC(=O)[C@@]1(O)[C@H](C)C[C@H]2[C@@H]3C=C(C)C4=Cc5c(cnn5-c5ccccc5)C[C@]4(C)[C@H]3[C@@H](O)C[C@@]21C`, the T/C by setting is: (dose: 0.11 mg/kg/injection, schedule: Q01DX007 (sc), vehicle: steriod suspending solution) 95 % of control; (dose: 0.17 mg/kg/injection, schedule: Q01DX007 (sc), vehicle: steriod suspending solution) 84 % of control; (dose: 0.75 mg/kg/injection, schedule: Q01DX007 (sc), vehicle: steriod suspending solution) 22 % of control and 42 % of control; (dose: 1.0 mg/kg/injection, schedule: Q01DX007 (sc), vehicle: steriod suspending solution) 21 % of control; (dose: 2.0 mg/kg/injection, schedule: Q01DX007 (sc), vehicle: steriod suspending solution) 23 % of control; (dose: 4.0 mg/kg/injection, schedule: Q01DX007 (sc), vehicle: steriod suspending solution) 9 % of control.
As to `CN(C)/C=N/c1nccs1`, the T/C is, setting by setting: (dose: 83.0 mg/kg/injection, schedule: Q01DX007 (ip), vehicle: saline) 58 % of control and 70 % of control; under setting [2], 34 % of control and 43 % of control.
With `COc1ccc(C(=O)/C(Br)=C/C(=O)O)cc1`, the T/C runs as follows: (dose: 6.25 mg/kg/injection, schedule: Q01DX007 (ip), vehicle: water) 99 % of control; (dose: 12.5 mg/kg/injection, schedule: Q01DX007 (ip), vehicle: water) 82 % of control; (dose: 25.0 mg/kg/injection, schedule: Q01DX007 (ip), vehicle: water) 108 % of control.
Consider `Cc1ccccc1N(C=O)c1ccccc1C`, for which the T/C is, setting by setting: (dose: 120.0 mg/kg/injection, schedule: Q01DX007 (ip), vehicle: methylcellulose (MC)) 164 % of control; (dose: 200.0 mg/kg/injection, schedule: Q01DX007 (ip), vehicle: methylcellulose (MC)) 150 % of control; (dose: 1000.0 mg/kg/injection, schedule: Q01DX007 (ip), vehicle: methylcellulose (MC)) 104 % of control.
For `CC(=O)OCC(=O)[C@@]1(O)CC[C@H]2[C@@H]3C[C@@H](C)C4=CC(=O)C=C[C@]4(C)[C@H]3[C@@H](O)C[C@@]21C`, the T/C reads like this: (dose: 32.0 mg/kg/injection, schedule: Q01DX007 (sc), vehicle: steriod suspending solution) 51 % of control; (dose: 49.0 mg/kg/injection, schedule: Q01DX007 (sc), vehicle: steriod suspending solution) 56 % of control; (dose: 73.0 mg/kg/injection, schedule: Q01DX007 (sc), vehicle: steriod suspending solution) 40 % of control and 55 % of control; (dose: 109.0 mg/kg/injection, schedule: Q01DX007 (sc), vehicle: steriod suspending solution) 48 % of control; (dose: 111.0 mg/kg/injection, schedule: Q01DX007 (sc), vehicle: steriod suspending solution) 31 % of control; (dose: 165.0 mg/kg/injection, schedule: Q01DX007 (sc), vehicle: steriod suspending solution) 36 % of control and 47 % of control. For the same molecule, the T/C runs as follows: (dose: 248.0 mg/kg/injection, schedule: Q01DX007 (sc), vehicle: steriod suspending solution) 35 % of control; (dose: 251.0 mg/kg/injection, schedule: Q01DX007 (sc), vehicle: steriod suspending solution) 33 % of control; (dose: 375.0 mg/kg/injection, schedule: Q01DX007 (sc), vehicle: steriod suspending solution) 31 % of control.
Take `Cc1cn(C2OC(CO)C(O)C2O)c(=O)[nH]c1=O` (stereo not given): the T/C is 90 % of control (dose: 7.5 mg/kg/injection, schedule: Q01DX007 (ip), vehicle: saline); 115 % of control (dose: 30.0 mg/kg/injection, schedule: Q01DX007 (ip), vehicle: saline); 89 % of control (dose: 60.0 mg/kg/injection, schedule: Q01DX007 (ip), vehicle: saline); 99 % of control (dose: 120.0 mg/kg/injection, schedule: Q01DX007 (ip), vehicle: saline).
For `c1ccc2nc3ccccc3c-2cc1`, the T/C is, setting by setting: (dose: 62.5 mg/kg/injection, schedule: Q01DX007 (ip), vehicle: saline) 118 % of control; under setting [2], 106 % of control; (dose: 250.0 mg/kg/injection, schedule: Q01DX007 (ip), vehicle: saline) 113 % of control; (dose: 750.0 mg/kg/injection, schedule: Q01DX007 (ip), vehicle: saline) 85 % of control; (dose: 1000.0 mg/kg/injection, schedule: Q01DX007 (ip), vehicle: saline) 68 % of control.
For `CCN(CC)CCNc1ccc([N+](=O)[O-])c2sc3ccccc3c(=O)c12`, the T/C (dose: 14.0 mg/kg/injection, schedule: Q#A X014 (ip), vehicle: saline) was 71 % of control; the T/C (dose: 21.0 mg/kg/injection, schedule: Q#A X014 (ip), vehicle: saline) was 65 % of control; the T/C (dose: 31.5 mg/kg/injection, schedule: Q#A X014 (ip), vehicle: saline) is 65 % of control; the T/C (dose: 47.5 mg/kg/injection, schedule: Q#A X014 (ip), vehicle: saline) is 34 % of control.
Consider `Nc1nc(SN=Nc2ccc(S(=O)(=O)O)cc2)c2[nH]cnc2n1`, for which the T/C was 104 % of control (dose: 1.75 mg/kg/injection, schedule: Q01DX007 (ip), vehicle: other); 80 % of control (dose: 3.5 mg/kg/injection, schedule: Q01DX007 (ip), vehicle: other); 65 % of control (dose: 6.0 mg/kg/injection, schedule: Q01DX007 (ip), vehicle: other); 46 % of control (dose: 7.0 mg/kg/injection, schedule: Q01DX007 (ip), vehicle: other); 57 % of control (dose: 9.0 mg/kg/injection, schedule: Q01DX007 (ip), vehicle: other); 18 % of control and 27 % of control and 33 % of control (dose: 14.0 mg/kg/injection, schedule: Q01DX007 (ip), vehicle: other). For the same molecule, the T/C (dose: 21.0 mg/kg/injection, schedule: Q01DX007 (ip), vehicle: other) is 1 % of control and 14 % of control.
Take `CO[C@H]1C[C@H](O[C@H]2CC[C@]3(C=O)[C@H]4CC[C@]5(C)[C@@H](C6=CC(=O)OC6)CC[C@]5(O)[C@@H]4CC[C@]3(O)C2)O[C@H](C)[C@H]1O`: the T/C (dose: 2.5 mg/kg/injection, schedule: Q01DX007 (sc), vehicle: saline) is 86 % of control and the T/C (dose: 5.0 mg/kg/injection, schedule: Q01DX007 (sc), vehicle: saline) is 62 % of control.
In the case of `CC(=O)OCC1=CC2OC(=O)C3=COC(OC4OC(CO)C(O)C(O)C4O)C1C32` (stereo not given), the T/C under setting [3] was 67 % of control.
For the molecule `Nc1ncnc2c1ccn2C1OC(CO)C(O)C1O` (stereo not given), under “dose: 0.62 mg/kg/injection, schedule: Q#A X014 (ip), vehicle: carboxymethylcellulose (CMC)”, the T/C was 90 % of control.
For the molecule `CCCN(C)/N=N/c1nc[nH]c1C(N)=O`, the T/C is 55 % of control (dose: 31.0 mg/kg/injection, schedule: Q01DX007 (ip), vehicle: carboxymethylcellulose (CMC)); 37 % of control (dose: 46.0 mg/kg/injection, schedule: Q01DX007 (ip), vehicle: carboxymethylcellulose (CMC)); 34 % of control (dose: 62.0 mg/kg/injection, schedule: Q01DX007 (ip), vehicle: carboxymethylcellulose (CMC)).
On to `CCCCC(=O)OCC1OC(n2cnc3c(=S)nc[nH]c32)C(OC(=O)CCCC)C1OC(=O)CCCC` (stereo not given), for which the T/C runs as follows: (dose: 75.0 mg/kg/injection, schedule: Q01DX007 (ip), vehicle: carboxymethylcellulose (CMC)) 69 % of control; under setting [1], 34 % of control; under setting [3], 96 % of control; (dose: 335.0 mg/kg/injection, schedule: Q01DX007 (ip), vehicle: carboxymethylcellulose (CMC)) 81 % of control; (dose: 750.0 mg/kg/injection, schedule: Q01DX007 (ip), vehicle: carboxymethylcellulose (CMC)) 43 % of control.

The T/C is the ratio of treated to control.

(Values after PubChem BioAssay AID342 (DTP/NCI, 2004).)
